Patent EP0133934A2, “Pharmacologically active 1,3,4-thiadiazol-(3,2-a)-thieno-(2,3-d)-pyrimidin-5-(H)one derivatives” (NIKEPHARMA S.r.l., priority 1983, dated 1985)
Where two headings read alike, the source gives them in different places.

Legend:
carrageenin oedema = assay: Antiinflammatory activity: carrageenin oedema in the rat; assay type: in vivo; settings: po, 4 h, read-out: OEDEMA INHIBITION % at the fourth hour
Experimental: (§1) The activity tests were carried out on male Spra gue-Dawley rats weighing 200+20 g and on male Swiss mice weighing 26+3 g.
(§2) The test compounds were administered orally by means of gastroesophageal tube, in the form of a suspen sion in a 10 ml/kg mucilage of 5% gum arabic; and intraperitoneally in the form of an aqueous suspen sion added with a few drops of Tween 80, in the con stant volume of 10 ml/kg.
The compounds under test and the control ones were administered orally one hour before the injection of 0.1 ml of 1% carrageenin in the right paw of the animals.
The volume of the paw was measured by means of a plethysmograph immediately before the injection and 2, 4 and 6 hours after.
The results were expressed as percentage inhibi tion of the oedema in the treated animals in comparison with the control animals, at the time of the maximum oedema development (fourth hour after the carrageenin injection).

acetic acid peritonitis = assay: Anti-exudative activity: acetic acid peritonitis in the rat; assay type: in vivo; settings: for PERITONEAL EXUDATE ml ± E.S.: controls 2.91 ± 0.12; for anti-exudative activity: oral dose of 10 mg/kg, result in words; for EXUDATE VOLUME ml ± E.S.: controls 2.58 ± 0.18
Experimental: The test was carried out according to the procedure described by Arrigoni-Martelli (Boll.Chim. Far. 107, 29, 1968). This method is based upon the evaluation of the anti-exudative effect of a drug at the peritoneal level, following a intraperitoneal injection of 10 ml/kg of a 0.5% acetic acid solution.
The compounds under test were administered oral ly one hour before the inflammatory agent; 30 minutes after the treatment the animals were killed and the fluid from the peritoneal cavity was drawn and measured.
The test compounds were administered by oral route 1 hour before intraperitoneal injection of acetic acid (10 ml/kg of a 0.5% solution).
The anti-exudative activity was determined on the basis of the peritoneal exudate of the treated animals, in comparison with the controls.

[1] = test system: Writhing test induced by phenyl-benzoquinone; assay: Phenylbenzoquinone writhing test in the rat; assay type: in vivo
Experimental: as §1, §2

gastric ulceration = assay type: in vivo, rat; settings: os; for ULCERA-TION DEGREE: scale 0 to 4
Experimental: To rats fasted for 18 hours, with water ad libitum, were administered the compounds under test at "0" time and after 2 hours. Control rats were treated with established anti-inflammatory agents.
6 Hours after the beginning of the test, the animals were killed by ether inhalation.
Gastric ulceration was assessed on the ground of values ranging from 0 to 4: • 0 = no ulceration; • 1 = slight iperhaemia and/or a few ulcers; • 2 = severe iperhaemia and many punctiform ulcers; • 3 = severe submucosal hemorrage, one large ulcer and many punctiform ulcers; • 4 severe submucosal hemorrage and many large ulcers.
The ulcerogenic index was measured by the following formula (Lwoff. J.M., J. Pharmacol., 2, 81, 1971): [formula]

Carrageenin pleuritis = Carrageenin pleuritis in the rat; assay type: in vivo; settings: for EXUDATE VOLUME: 30 min. before carrageenin and 6 hours after, exudate at 18 hours, controls 2.76 ± 0.38
Experimental: Compound HA-34 was tested for the protective activity against the exudative pleuritis reaction induced by carrageenin. HA-34 was administered 30 min. before the injection of carrageenin, and 6 hours after it. The experiment was carried out on male Spra- gue-Dawley rats, anestethized with ethyl urethane, which were subjected, in their right pleural cavity, to injection of 1.5 ml of air and then 0.1 ml of a 1% carrageenin solution, in sterile normal saline, according to the procedure by Van Armann et al. (J. Pharmac. Exp. Ther., 150, 328, 1965). Indometha cin and Piroxicam were employed as the control drugs, under the same conditions. 18 Hours after the intrapleuric carrageenin injec tion, the animals were killed by means of ether inhalation, and the pleuric exudate was collected and measured.

[2] = test system: phenylbenzoquinone writhing test; assay: Phenylbenzoquinone writhing test in the mouse (ED50 and duration of effect); assay type: in vivo; settings: for % INHI-BITION / N° OF WRITHES IN 10' ml ± E.S.: Table 6, oral, one hour before the test; for N° OF WRITHES IN 10' ml ± E.S.: controls 52.4 ± 1.69; for % INHIBITION / Nº OF WRITHES IN 10' ml ± E.S.: Table 7, oral 1 mg/kg; for Nº OF WRITHES IN 10' ml ± E.S.: controls 53.2 ± 1.26
Experimental: The analgesic effect was determined by the number of writhes of the abdomen recorded during 10 minutes (from 5 to 15 minutes after the phenylbenzo quinone injection).

[3] = os, 100 mg/kg, one hour before carrageenin
[4] = Rattus norvegicus, po, Table 4, os, 10 mg/kg
[5] = Rattus norvegicus, po, 10 min, os, read-out: % INHIBI-TION
[6] = 400 mg/kg, at 0 time and after 2 hours, killed at 6 hours
[7] = 30 min. before phenylbenzoquinone

For `CC(=O)Oc1ccccc1C(=O)O` [ASA, Acetylsali cylic acid], the inhibition in vivo at 100 mg/kg (carrageenin oedema) was 31.4 ± 0.37%, the “PERITONEAL EXUDATE ml ± E.S.” value (acetic acid peritonitis; Table 4, os, 20 mg/kg) was 2.76 ± 0.13 mL and the anti-exudative activity (acetic acid peritonitis) was “did not display valuable anti-exudat- ing properties”. For the same compound, the inhibition in vivo at 50 mg/kg ([1]; Rattus norvegicus, po, 10 min, read-out: % INHIBI-TION) was 40%, the “% ANIMALS WITH ULCERS” value (gastric ulceration; 200 mg/kg) was 78% and the “ULCERA-TION INDEX” value (gastric ulceration; 200 mg/kg) was 112. For the same compound, the “ULCERA-TION DEGREE” value (gastric ulceration; 200 mg/kg) was 1.5.

`Cc1nn2c(=O)c3c4c(sc3nc2s1)CCC4` [HA 30] was tested, and the inhibition in vivo at 100 mg/kg (carrageenin oedema; [3]) was 35.6 ± 0.74%, the inhibition in vivo at 10 mg/kg (acetic acid peritonitis; [4]) was 14% and the “PERITONEAL EXUDATE ml ± E.S.” value (acetic acid peritonitis; Table 4, os, 10 mg/kg) was 2.50 ± 0.10 mL. The anti-exudative activity (acetic acid peritonitis) was “did not display valuable anti-exudat- ing properties”, the inhibition in vivo at 0.5 mg/kg [1, 5] was 15% and the inhibition in vivo at 5 mg/kg [1, 5] was 36%. The analgesic action ([1]; oral doses of 5 and 0.5 mg/kg, result in words) was “substan tially comparable to the reference compound”.

With `CCc1nn2c(=O)c3c4c(sc3nc2s1)CCCC4` [HA 32] the inhibition in vivo at 100 mg/kg (carrageenin oedema; [3]) was 49.6 ± 0.82%, the inhibition in vivo at 10 mg/kg (acetic acid peritonitis; [4]) was 74% and the “PERITONEAL EXUDATE ml ± E.S.” value (acetic acid peritonitis; Table 4, os, 10 mg/kg) was 0.93 ± 0.14 mL. For the same compound, the inhibition in vivo at 0.5 mg/kg [1, 5] was 48%, the inhibition in vivo at 5 mg/kg [1, 5] was 76% and the “ULCERA-TION INDEX” value (gastric ulceration; 400 mg/kg) was 0. The “% ANIMALS WITH ULCERS” value (gastric ulceration; [6]) was 0% and the “ULCERA-TION DEGREE” value (gastric ulceration; 400 mg/kg) was 0.

For `O=c1c2c3c(sc2nc2sc(-c4ccccc4)nn12)CCCC3` [HA 33], the inhibition in vivo at 100 mg/kg (carrageenin oedema; [3]) was 39.6 ± 0.76%, the inhibition in vivo at 10 mg/kg (acetic acid peritonitis; [4]) was 68% and the “PERITONEAL EXUDATE ml ± E.S.” value (acetic acid peritonitis; Table 4, os, 10 mg/kg) was 1.04 ± 0.16 mL. For the same compound, the inhibition in vivo at 0.5 mg/kg [1, 5] was 27%, the inhibition in vivo at 5 mg/kg [1, 5] was 70% and the “ULCERA-TION INDEX” value (gastric ulceration; 400 mg/kg) was 0. For the same compound, the “% ANIMALS WITH ULCERS” value (gastric ulceration; [6]) was 0% and the “ULCERA-TION DEGREE” value (gastric ulceration; 400 mg/kg) was 0.

In the case of `CCOc1ccccc1-c1nn2c(=O)c3c4c(sc3nc2s1)CCCC4` [HA 36], the inhibition in vivo at 100 mg/kg (carrageenin oedema; [3]) is reported as 52.7 ± 0.61%, the inhibition in vivo at 10 mg/kg (acetic acid peritonitis; [4]) is reported as 49% and the “PERITONEAL EXUDATE ml ± E.S.” value (acetic acid peritonitis; Table 4, os, 10 mg/kg) is reported as 1.48 ± 0.10 mL. For the same compound, the inhibition in vivo at 0.5 mg/kg [1, 5] was 22%, the inhibition in vivo at 5 mg/kg [1, 5] was 60% and the “ULCERA-TION INDEX” value (gastric ulceration; 400 mg/kg) was 0. The “% ANIMALS WITH ULCERS” value (gastric ulceration; [6]) was 0% and the “ULCERA-TION DEGREE” value (gastric ulceration; 400 mg/kg) was 0.

`Cc1cccc(Nc2ccccc2C(=O)O)c1C` [MFA, mephenamic acid] was tested, and the inhibition in vivo at 100 mg/kg (carrageenin oedema; [3]) was 49.2 ± 0.86%, the inhibition in vivo at 10 mg/kg (acetic acid peritonitis; [4]) was 6% and the “PERITONEAL EXUDATE ml ± E.S.” value (acetic acid peritonitis; Table 4, os, 10 mg/kg) was 2.60 ± 0.15 mL. For the same compound, the anti-exudative activity (acetic acid peritonitis) was “did not display valuable anti-exudat- ing properties”, the inhibition in vivo at 5 mg/kg [1, 5] was 24% and the inhibition in vivo at 10 mg/kg ([1]; Rattus norvegicus, po, 10 min, os, 10 mg/kg, read-out: % INHIBI-TION) was 33%. The “% ANIMALS WITH ULCERS” value (gastric ulceration; 200 mg/kg) was 50%, the “ULCERA-TION INDEX” value (gastric ulceration; 200 mg/kg) was 50 and the “ULCERA-TION DEGREE” value (gastric ulceration; 200 mg/kg) was 1.0.

With `CN1C(C(=O)Nc2ccccn2)=C(O)c2ccccc2S1(=O)=O` [PIROXICAM, Piroxicam] the “% INHIBITION” value (Carrageenin pleuritis; 5 mg/kg) was 39.5%, the “EXUDATE VOLUME” value (Carrageenin pleuritis; 5 mg/kg) was 1.67 ± 0.33 and the “% INHIBITION” value (Carrageenin pleuritis; 10 mg/kg) was 64.1%. For the same compound, the “EXUDATE VOLUME” value (Carrageenin pleuritis; 10 mg/kg) was 0.99 ± 0.40, the inhibition in vivo at 0.1 mg/kg (acetic acid peritonitis; Rattus norvegicus, po, Table 8, oral, 0.1 mg/kg) was 24.6% and the inhibition in vivo at 1 mg/kg (acetic acid peritonitis; Rattus norvegicus, po, Table 8, oral, 1 mg/kg) was 51.2%. For the same compound, the inhibition in vivo at 10 mg/kg (acetic acid peritonitis; Rattus norvegicus, po, Table 8, oral, 10 mg/kg) was 80%, the inhibition in vivo at 20 mg/kg (acetic acid peritonitis; Rattus norvegicus, po, Table 8, oral, 20 mg/kg) was 95.2% and the ED50 (acetic acid peritonitis; Rattus norvegicus, oral administration 1 hour before i.p. acetic acid) was 0.7 mg/kg. The “EXUDATE VOLUME ml ± E.S.” value (acetic acid peritonitis; Table 8, oral, 0.1 mg/kg, 1 hour before acetic acid) was 1.94 ± 0.08 mL, the “EXUDATE VOLUME ml ± E.S.” value (acetic acid peritonitis; Table 8, oral, 0.5 mg/kg) was 1.37 ± 0.07 mL and the “EXUDATE VOLUME ml ± E.S.” value (acetic acid peritonitis; Table 8, oral, 1 mg/kg) was 1.26 ± 0.06 mL. The “EXUDATE VOLUME ml ± E.S.” value (acetic acid peritonitis; Table 8, oral, 10 mg/kg) was 0.49 ± 0.04 mL, the “EXUDATE VOLUME ml ± E.S.” value (acetic acid peritonitis; Table 8, oral, 20 mg/kg) was 0.12 ± 0.06 mL and the ED50 ([2]; Mus musculus, 1 h, oral administration one hour before the test, read-out: ED50) was 1.2 mg/kg. For the same compound, the “% INHI-BITION” value ([2]; 0.1 mg/kg) was 11.8%, the “% INHI-BITION” value ([2]; 0.5 mg/kg) was 28.4% and the “N° OF WRITHES IN 10' ml ± E.S.” value ([2]; 0.5 mg/kg) was 37.5 ± 1.26. The “% INHI-BITION” value ([2]; 1 mg/kg) was 54.8%, the “N° OF WRITHES IN 10' ml ± E.S.” value ([2]; 1 mg/kg) was 23.7 ± 2.18 and the “% INHI-BITION” value ([2]; 2 mg/kg) was 61.8%. The “% INHI-BITION” value ([2]; 5 mg/kg) was 82.2%, the “N° OF WRITHES IN 10' ml ± E.S.” value ([2]; 5 mg/kg) was 9.3 ± 1.44 and the “% INHIBITION” value [2, 7] was 54.5%. The “Nº OF WRITHES IN 10' ml ± E.S.” value [2, 7] was 24.2 ± 1.62, the “% INHIBITION” value ([2]; 1 h before phenylbenzoquinone) was 57.3% and the “Nº OF WRITHES IN 10' ml ± E.S.” value ([2]; 1 h before phenylbenzoquinone) was 22.7 ± 2.18. For the same compound, the “% INHIBITION” value ([2]; 3 h before phenylbenzoquinone) was 67.6%, the “% INHIBITION” value ([2]; 4 h before phenylbenzoquinone) was 63.3% and the “% INHIBITION” value ([2]; 6 h before phenylbenzoquinone) was 65.0%. For the same compound, the “% INHIBITION” value ([2]; 8 h before phenylbenzoquinone) was 60.1%, the “Nº OF WRITHES IN 10' ml ± E.S.” value ([2]; 8 h before phenylbenzoquinone) was 21.2 ± 0.72 and the “% INHIBITION” value ([2]; 24 h before phenylbenzoquinone) was 57.5%. The “Nº OF WRITHES IN 10' ml ± E.S.” value ([2]; 24 h before phenylbenzoquinone) was 22.6 ± 1.37 and the “% INHIBITION” value ([2]; 32 h before phenylbenzoquinone) was 12.0%.
